Results from patent US6825340B2, “Methods and reagents for inactivating ribonucleases” (Ambion, Inc., priority 1998, dated 2004).
Entries after “also recorded” stand apart in the source; their conditions may differ.

Legend:
T3 RNA polymerase = molecular target: T1, T3 RNA polymerase (Enterobacteria phage T3, UniProt P07659); experiment: In vitro transcription reaction (MAXIscript kit), UTP[α-32P] incorporation; type: biochemical; conditions: 20 mM reducing reagent
T1 construct: purchased Ambion, Inc
Method: FIG. 3. […] Transcriptions were performed with T7, T3 and SP6 RNA polymerase in the presence and absence of 20 mM DTT. For each RNA polymerase reaction, pTRI-Xef DNA was the template and UTP[α^32P] was included to measure the efficiency of transcription. Duplicates were performed for each reaction. TCA precipitations were performed on each transcription reaction to measure the percent of the UTP[α^32P] incorporated into RNA.
The transcription reactions were based on the MAXIscript™ transcription kit (Ambion, Inc.). The following were assembled with or without 20 mM reducing reagent in a final volume of 18 μl: NTPs (0.5 mM each), 1 μg linearized DNA template, 2 μl 10 × transcription buffer, and 0.2 μl UTP [α-^32P] (800 Ci/mmol). The reaction mixtures were incubated 60° C. for 10 minutes and then 2 μl of the either SP6, T7 or T3 RNA polymerase (10 units/μl) were added to the reactions, incubated 30° C. for 60 minutes and then TCA precipitated to assess the incorporation of the radioactive label.

[1] = test system: unknown RNase in psoralen biotin; experiment: Integrity of psoralen biotin labeled Millennium Markers after 37° C., 16 hours; type: biochemical; conditions: 5 mM DTT; 90° C. for 10 minutes; then 37° C. for 16 hours
Method: The Millennium™ Markers (Ambion, Inc.) are a set of RNA size markers from 0.5 to 9 kb in length. They are used for determining the length of an unknown RNA. These markers were being labeled with biotin using a psoralen biotin labeling procedure so that they could be detected non-isotopically on a nylon membrane. However, if the Millennium™Markers were incubated at 37° C. for 16 hours after labeling with the psoralen biotin, they were degraded.

[2] = DTNB test of DTT reducing strength (absorbance at 412 nm); type: physicochemical
Description: DTT has low redox potential (−0.33 volts at pH 7.0) and is capable of maintaining monothiols effectively in the reduced form and of reducing disulfides quantitatively (Cleland, 1964). DTT acts as a protective agent for free sulfhydryl groups. […] DTT's reducing activity can be accurately assayed using 5, 5′-dithiobis (2-nitrobenzoic acid) or DTNB (Cleland, 1964). The reduction of DTNB mediated by DTT generates a yellow color whose absorbance can be measured at 412 nm using a spectrophotometer. RNase A, RNase 1 and RNase T1 all contain disulfide bonds (Ryle and Anfinesen, 1957; Barnard, 1969) and, therefore, are susceptible to reduction.
FIG. 5. DTT is oxidized by incubating at 65° C. for 6 days. DTT was made to 100 mM in water and incubated at 65° C. for 6 days. Fresh DTT and the heated 100 mM were diluted in water to different concentrations and subjected to the DTNB test. Absorbance at 412 nm indicates the reducing strength of the DTT.
To assess the effect that the ribonuclease mixture has on the oxidation of DTT, the RNase mixture at 1 μg/ml was incubated with DTT at 0.05, 0.1, 0.15, 0.2 and 0.25 mM at 60° C. for 20 minutes. 0.1 ml of each sample was added to 0.8 ml of 0.1 M KPO4 (pH 7.7) and 0.1 ml DTNB in 0.1 KPO4 (pH 7.7). Samples which were not treated with heat were also subjected to the DTNB assay for comparison. The DTNB reaction mixtures were incubated at 21° C. for 10 minutes to allow the yellow color to develop. Absorbances were measured at 412 nm. The results were that there was no difference in the reactivity of the DTT whether it had been used to inactivate the RNase mixture or not.
DTT was made to 100 mM in water and incubated at 65° C. for 6 days. This material was diluted to 50, 100, 150, 200, 250 micromolar in water and then assayed for its reducing strength using the DTNB test described in Example 7 and compared to the same concentrations of DTT made fresh in water. The absorbance at 412 nm directly correlates with reducing strength. The greater the absorbance, the greater the reducing power.

[3] = test system: RNase mixture (RNase A, RNase 1, RNase T1); experiment: Isotopic RNase inactivation assay (radioactive RNA probe, acrylamide gel); type: biochemical, human, E. coli and a fungus; conditions: 20 mM DTT, 60° C. for 20 minutes
Method: FIG. 1. DTT-heat inactivation of different RNase concentrations. The RNase mixture was made to different concentrations in 20 mM DTT: 1 mM sodium citrate (pH 6.4). The RNase samples were incubated at 60° C. for 20 minutes. A radioactive RNA probe was added to the treated RNase samples, incubated at 37° C. for 16 hours, fractionated in a denaturing 5% acrylamide gel and exposed to x-ray film.
The inventors routinely perform assays on RNA designed to assess RNase activity in a sample. Two different assays are typically used for the detection of ribonuclease activity, non-isotopic and isotopic. Each assay generates similar data with regard to the sensitivity of detection. In both assays, the inactivation process is typically performed on a mixture of three different ribonucleases: RNase A, RNase 1, and RNase T1. Each ribonuclease is purified from a different species: […], E. coli and a fungus, respectively. The three RNases are very different from each other in their origin, substrate specificity and protein sequence. In this way, the inactivation process can test three completely different but well characterized ribonucleases. The standard stock RNase mixture employed in the following examples is prepared by combining 1 μl RNase 1 (100 U/μl; Ambion), 1 μl RNase cocktail (RNase A, 0.5 U/μl; RNase T1, 20 U/μl, Ambion) and 98 μl water. […]

T1 sequence (P07659 whole entry): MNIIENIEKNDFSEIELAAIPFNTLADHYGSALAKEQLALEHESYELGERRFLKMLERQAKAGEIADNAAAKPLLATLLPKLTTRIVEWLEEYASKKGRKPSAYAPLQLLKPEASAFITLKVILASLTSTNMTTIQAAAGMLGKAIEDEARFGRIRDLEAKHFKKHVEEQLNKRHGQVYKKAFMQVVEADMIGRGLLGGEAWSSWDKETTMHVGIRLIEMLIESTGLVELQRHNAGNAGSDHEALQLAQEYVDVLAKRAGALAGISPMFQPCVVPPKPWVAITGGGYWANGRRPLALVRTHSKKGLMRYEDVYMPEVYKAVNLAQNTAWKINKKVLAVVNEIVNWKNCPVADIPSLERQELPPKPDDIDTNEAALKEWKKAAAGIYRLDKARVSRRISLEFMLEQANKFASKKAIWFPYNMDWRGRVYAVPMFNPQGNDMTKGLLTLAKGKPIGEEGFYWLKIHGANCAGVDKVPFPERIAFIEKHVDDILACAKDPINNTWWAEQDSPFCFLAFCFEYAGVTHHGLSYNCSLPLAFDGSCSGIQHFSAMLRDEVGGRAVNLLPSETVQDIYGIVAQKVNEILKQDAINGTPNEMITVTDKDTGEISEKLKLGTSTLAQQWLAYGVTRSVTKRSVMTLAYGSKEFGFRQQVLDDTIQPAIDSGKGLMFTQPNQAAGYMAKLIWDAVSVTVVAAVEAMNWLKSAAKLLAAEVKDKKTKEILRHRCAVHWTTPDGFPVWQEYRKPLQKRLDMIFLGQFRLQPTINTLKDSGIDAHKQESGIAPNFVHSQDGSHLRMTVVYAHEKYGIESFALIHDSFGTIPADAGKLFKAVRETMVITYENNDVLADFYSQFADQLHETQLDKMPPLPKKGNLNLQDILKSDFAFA

## O[C@H](CS)[C@H](O)CS [DTT, dithiothreitol]
T3 RNA polymerase
  inhibition of T3 RNA polymerase transcription: does not inhibit; also recorded: None of the three polymerases were inhibited
[1]
  integrity of psoralen biotin labeled Millennium Markers: remained intact
[2]; DTT 100 mM in water incubated at 65° C. for 6 days
  stability of DTT reducing strength: completely oxidized
[2]; RNase mixture 1 μg/ml, DTT 0.05-0.25 mM, 60° C. for 20 minutes
  reactivity of DTT after use to inactivate the RNase mixture vs non-reacted DTT: no difference
[2]; sequential inactivations, 60° C. for 20 minutes
  loss of DTT reducing power with each heating step: no detectable loss
[3]; 1 mM sodium citrate (pH 6.4), isotopic assay
  concentration of RNase mixture completely inactivated: up to 200 ng/ml
[3]; RNase mixture 200 ng/ml, 17 solutions, isotopic
  RNase inactivation in different buffers and solutions: inactivated RNase activity in all of buffers and solutions tested
